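Briefly, cells in 96-well plates were exposed to five compound concentrations for 48 h, and endpoints were estimated by linear interpolation. Here, GI50 denotes the concentration required for 50% inhibition of growth. The concentration for full growth arrest is given as TGI.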
How the values were obtained:
Experiment in all cases: inhibition of tumour cell growth, NCI panel, 48 h
OVCAR-4 ovarian = system: OVCAR-4 ovarian
SN12C renal = system: SN12C renal
MDA-MB-435 = system: MDA-MB-435
UO-31 renal = system: UO-31 renal
OVCAR-8 ovarian = system: OVCAR-8 ovarian
HCC-2998 colon = system: HCC-2998 colon
UACC-257 melanoma = system: UACC-257 melanoma
NCI-H522 lung = system: NCI-H522 lung
OVCAR-5 ovarian = system: OVCAR-5 ovarian
HCT-116 colon = system: HCT-116 colon
HOP-62 NSCLC = system: HOP-62 NSCLC
MCF7 breast = system: MCF7 breast
CAKI-1 renal = system: CAKI-1 renal
ACHN renal = system: ACHN renal
SNB-19 CNS = system: SNB-19 CNS
RPMI-8226 leukemia = system: RPMI-8226 leukemia
NCI-H460 lung = system: NCI-H460 lung
K-562 leukemia = system: K-562 leukemia
HOP-92 NSCLC = system: HOP-92 NSCLC
PC-3 prostate = system: PC-3 prostate
RXF 393 renal = system: RXF 393 renal
NCI-H23 lung = system: NCI-H23 lung
SR leukemia = system: SR leukemia
HCT-15 colon = system: HCT-15 colon
OVCAR-3 ovarian = system: OVCAR-3 ovarian
TK-10 renal = system: TK-10 renal
786-0 renal = system: 786-0 renal
KM12 colon = system: KM12 colon
BT-549 breast = system: BT-549 breast

For COc1ccc2c(c1)[C@@]1(C)CCC3c4ccc(O)cc4CCC3C1C2 (some centres not stated), the GI50 (OVCAR-4 ovarian) was 13.7 µM, the TGI (OVCAR-4 ovarian) was 28.4 µM and the GI50 (SN12C renal) was 16.8 µM. For the same compound, the TGI (SN12C renal) was 32 µM, the GI50 (MDA-MB-435) was 15 µM and the TGI (MDA-MB-435) was 31 µM. It also gave a GI50 (UO-31 renal) of 12.8 µM, a TGI (UO-31 renal) of 30.9 µM and a GI50 (OVCAR-8 ovarian) of 17.1 µM. For the same compound, the TGI (OVCAR-8 ovarian) was 38.8 µM, the GI50 (HCC-2998 colon) was 18 µM and the TGI (HCC-2998 colon) was 32.3 µM. The GI50 (UACC-257 melanoma) was 17.7 µM, the TGI (UACC-257 melanoma) was 33.7 µM and the GI50 (NCI-H522 lung) was 16.4 µM. The TGI (NCI-H522 lung) was 37.6 µM, the GI50 (OVCAR-5 ovarian) was 19 µM and the TGI (OVCAR-5 ovarian) was 33.1 µM. For the same compound, the GI50 (HCT-116 colon) was 14.4 µM, the TGI (HCT-116 colon) was 27.5 µM and the GI50 (HOP-62 NSCLC) was 22.5 µM. It also gave a TGI (HOP-62 NSCLC) of 37.2 µM, a GI50 (MCF7 breast) of 15.1 µM and a TGI (MCF7 breast) of 30.8 µM. The GI50 (CAKI-1 renal) was 17.1 µM, the TGI (CAKI-1 renal) was 32.7 µM and the GI50 (ACHN renal) was 15.9 µM. The TGI (ACHN renal) was 29.8 µM, the GI50 (SNB-19 CNS) was 16.2 µM and the TGI (SNB-19 CNS) was 30.7 µM. It also gave a GI50 (RPMI-8226 leukemia) of 14.8 µM, a TGI (RPMI-8226 leukemia) of 39.8 µM and a GI50 (NCI-H460 lung) of 9.02 µM. For the same compound, the TGI (NCI-H460 lung) was 23.2 µM, the GI50 (K-562 leukemia) was 14.8 µM and the TGI (K-562 leukemia) was 48.4 µM. It also gave a GI50 (HOP-92 NSCLC) of 17.2 µM, a TGI (HOP-92 NSCLC) of 33.9 µM and a GI50 (PC-3 prostate) of 20.1 µM. It also gave a TGI (PC-3 prostate) of 42 µM, a GI50 (RXF 393 renal) of 10.5 µM and a TGI (RXF 393 renal) of 34.5 µM. It also gave a GI50 (NCI-H23 lung) of 16.8 µM, a TGI (NCI-H23 lung) of 30.8 µM and a GI50 (SR leukemia) of 16.3 µM. It also gave a TGI (SR leukemia) greater than 100 µM, a GI50 (HCT-15 colon) of 12.3 µM and a TGI (HCT-15 colon) of 28 µM. It also gave a GI50 (OVCAR-3 ovarian) of 14.7 µM, a TGI (OVCAR-3 ovarian) of 29.1 µM and a GI50 (TK-10 renal) of 14 µM. The TGI (TK-10 renal) was 29 µM, the GI50 (786-0 renal) was 15.3 µM and the TGI (786-0 renal) was 29.2 µM. The GI50 (KM12 colon) was 15.4 µM, the TGI (KM12 colon) was 36.8 µM and the GI50 (BT-549 breast) was 22.4 µM.
